Drawing on patent publication US11319299B2, “Substituted carboxamides as inhibitors of WDR5 protein-protein binding” (PROPELLON THERAPEUTICS INC., priority 2016, dated 2022), this text covers Kd for 10 compounds.

In the experiment the target is WDR5 (Homo sapiens (Human), UniProt P61964). Description: Surface Plasmon Resonance (SPR) assay, KD and residence time. The experiment is classed as binding. Conditions: surface plasmon resonance (SPR) assay; read-out: WDR5 binding affinity (KD). On the technique in general: In SPR one partner is held on a chip, and binding of the other changes the refractive index at the surface.

The term Kd denotes the free concentration of one partner at which half of the binding sites on the other are occupied at equilibrium, for simple one-to-one binding. As to `C[C@@H]1CN(c2cc(F)c(-c3cnc(N4CCCN(C)CC4)nc3)cc2NC(=O)c2ccc(F)cc2C(F)(F)F)C[C@H](C)N1C` [Example 203, 4-fluoro-N-[4-fluoro-5-[2-(4-methyl-1,4-diazepan-1-yl)pyrimidin-5-yl]-2-[(3R,5S)-3,4,5-trimethylpiperazin-1-yl]phenyl]-2-(trifluoromethyl)benzamide], the Kd was found to be 1.66 nM.

As for `C[C@@H]1CN(c2cc(F)c(-c3ccc(N4CCOCC4)cc3)cc2NC(=O)c2cn(C)c(=O)cc2C(F)(F)F)C[C@H](C)N1C` [Example 204, N-[4-fluoro-5-(4-morpholin-4-ylphenyl)-2-[(3R,5S)-3,4,5-trimethylpiperazin-1-yl]phenyl]-1-methyl-6-oxo-4-(trifluoromethyl)pyridine-3-carboxamide], the Kd was 13.8 nM.

`C[C@@H]1CN(c2cc(F)c(-c3cncc(C#N)c3)cc2NC(=O)c2c[nH]c(=O)cc2C(F)(F)F)C[C@H](C)N1C` [Example 205, N-[5-(5-cyanopyridin-3-yl)-4-fluoro-2-[(3R,5S)-3,4,5-trimethylpiperazin-1-yl]phenyl]-6-oxo-4-(trifluoromethyl)-1H-pyridine-3-carboxamide]: the Kd came out at 8.15 nM.

For `C[C@@H]1CN(c2cc(F)c(-c3cncc(Cl)c3)cc2NC(=O)c2c[nH]c(=O)cc2C(F)(F)F)C[C@H](C)N1C` [Example 206, N-[5-(5-chloropyridin-3-yl)-4-fluoro-2-[(3R,5S)-3,4,5-trimethylpiperazin-1-yl]phenyl]-6-oxo-4-(trifluoromethyl)-1H-pyridine-3-carboxamide], the Kd turned out to be 3.85 nM.

As for `C[C@@H]1CN(c2cc(F)c(-c3cccnc3OC3CCCCC3)cc2NC(=O)c2c[nH]c(=O)cc2C(F)(F)F)C[C@H](C)N1C` [Example 207, N-[5-(2-cyclohexyloxypyridin-3-yl)-4-fluoro-2-[(3R,5S)-3,4,5-trimethylpiperazin-1-yl]phenyl]-6-oxo-4-(trifluoromethyl)-1H-pyridine-3-carboxamide], the Kd was 6.69 nM.

Turning to `COc1ccc(CC(=O)N2CC=C(c3cc(NC(=O)c4c[nH]c(=O)cc4C(F)(F)F)c(N4C[C@@H](C)N(C)[C@@H](C)C4)cc3F)CC2)cc1` [Example 208, N-[4-fluoro-5-[1-[2-(4-methoxyphenyl)acetyl]-3,6-dihydro-2H-pyridin-4-yl]-2-[(3R,5S)-3,4,5-trimethylpiperazin-1-yl]phenyl]-6-oxo-4-(trifluoromethyl)-1H-pyridine-3-carboxamide], the Kd came to 0.57 nM.

Consider `COCCOc1ccc(-c2cc(NC(=O)c3cn(C)c(=O)cc3C(F)(F)F)c(N3C[C@@H](C)N(C)[C@@H](C)C3)cc2F)cn1` [Example 209, N-(4-fluoro-5-(6-(2-methoxyethoxy)pyridin-3-yl)-2-((3S,5R)-3,4,5-trimethylpiperazin-1-yl)phenyl)-1-methyl-6-oxo-4-(trifluoromethyl)-1,6-dihydropyridine-3-carboxamide], for which the Kd is 9.53 nM.

On to `C[C@@H]1CN(c2cc(F)c(-c3cnc(N4CCCC4)nc3)cc2NC(=O)c2cn(C)c(=O)cc2C(F)(F)F)C[C@H](C)N1C` [Example 210, N-[4-fluoro-5-(2-pyrrolidin-1-ylpyrimidin-5-yl)-2-[(3R,5S)-3,4,5-trimethylpiperazin-1-yl]phenyl]-1-methyl-6-oxo-4-(trifluoromethyl)pyridine-3-carboxamide], for which the Kd worked out at 3.86 nM.

For the compound `C[C@@H]1CN(c2cc(F)c(-c3cnc(N4CCOCC4)nc3)cc2NC(=O)c2sccc2C(F)(F)F)C[C@H](C)N1C` [Example 211, N-[4-fluoro-5-(2-morpholin-4-ylpyrimidin-5-yl)-2-[(3R,5S)-3,4,5-trimethylpiperazin-1-yl]phenyl]-3-(trifluoromethyl)thiophene-2-carboxamide], the Kd is 120 nM.

On to `C[C@@H]1CN(c2cc(F)c(-c3cnc(N4CCOCC4)nc3)cc2NC(=O)c2cc(Cl)c(F)c(Cl)c2)C[C@H](C)N1C` [Example 212, 3,5-dichloro-4-fluoro-N-[4-fluoro-5-(2-morpholin-4-ylpyrimidin-5-yl)-2-[(3R,5S)-3,4,5-trimethylpiperazin-1-yl]phenyl]benzamide], for which the Kd was determined as 2.71 nM.
